Reference: patent publication US20210008012A1, “NOVEL APPLICATIONS OF DISULFIRAM AND DERIVATIVES THEREOF” (GENEHEAL BIOTECHNOLOGY CO., LTD., priority 2017, published 2021)

Tested on: PAICS
Assay: Animal experiments: inhibition of SAICAR accumulation
Type: in vivo
Settings: "can reach"
Text: By inhibiting the activity of PAICS, the accumulation of toxic compound […] is reduced, which proves that the compound disulfiram can effectively treat rare disease ADSL deficiency.

Which “inhibition ratio against SAICAR accumulation” value does the source give for `CCN(CC)C(=S)SSC(=S)N(CC)CC` [disulfiram, Disulfiram] here?
Its value is 87.11%.
